Assay [1] addresses T1, ΔF508-CFTR (Homo sapiens, UniProt P13569, DEL508-508).
T1 construct: host or cells: CFBE41o-, doxycycline-inducible
Nature of the assay: CFTR cell surface levels using HRP-tagged ΔF508-CFTR expressing CFBE cells, intrinsic corrector capacity. The class given is cell-based. As to conditions: for EC50: read-out: EC50. The essentials:
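Here the cells express ΔF508-CFTR with horseradish peroxidase inserted in extracellular loop 4, so only rescued channel at the surface gives luminescent signal. Compounds act on their own, 20 h at the reduced temperature of 33 °C; values are percent activity relative to DMSO and a 3 μM corrector.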

For assay [2], the target named is T1, ΔF508-CFTR. Briefly: CFTR cell surface levels using HRP-tagged ΔF508-CFTR expressing CFBE cells, in the presence of a co-corrector. The class given is cell-based. The note with it: HRP-tagged ΔF508-CFTR expressing CFBE cells, in the presence of 3 μM co-corrector; for EC50: read-out: EC50. The gist of the method:
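Cells were seeded with 0.5 μg/mL doxycycline and held 68 h at 37 °C. Test compounds plus 3 μM co-corrector (final 0.1% DMSO) were then added for 20 h at 33 °C. Washed cells received HRP substrate, and luminescence was normalized between DMSO and 3 μM co-corrector controls.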

Where [3] appears, read: HRP-tagged ΔF508-CFTR expressing CFBE cells, intrinsic corrector capacity (no co-corrector), 33° C., 20 hours.
The mark [4] stands for this setting: HRP-tagged ΔF508-CFTR CFBE41o- cells, compounds alone (intrinsic corrector capacity), 20 hours at 33° C., positive control 3 μM corrector.
Setting [5] is: HRP-tagged ΔF508-CFTR CFBE41o- cells, compounds alone (intrinsic corrector capacity), 20 hours at 33° C.

T1 sequence (P13569 with tags, fused parts or gaps DEL508-508): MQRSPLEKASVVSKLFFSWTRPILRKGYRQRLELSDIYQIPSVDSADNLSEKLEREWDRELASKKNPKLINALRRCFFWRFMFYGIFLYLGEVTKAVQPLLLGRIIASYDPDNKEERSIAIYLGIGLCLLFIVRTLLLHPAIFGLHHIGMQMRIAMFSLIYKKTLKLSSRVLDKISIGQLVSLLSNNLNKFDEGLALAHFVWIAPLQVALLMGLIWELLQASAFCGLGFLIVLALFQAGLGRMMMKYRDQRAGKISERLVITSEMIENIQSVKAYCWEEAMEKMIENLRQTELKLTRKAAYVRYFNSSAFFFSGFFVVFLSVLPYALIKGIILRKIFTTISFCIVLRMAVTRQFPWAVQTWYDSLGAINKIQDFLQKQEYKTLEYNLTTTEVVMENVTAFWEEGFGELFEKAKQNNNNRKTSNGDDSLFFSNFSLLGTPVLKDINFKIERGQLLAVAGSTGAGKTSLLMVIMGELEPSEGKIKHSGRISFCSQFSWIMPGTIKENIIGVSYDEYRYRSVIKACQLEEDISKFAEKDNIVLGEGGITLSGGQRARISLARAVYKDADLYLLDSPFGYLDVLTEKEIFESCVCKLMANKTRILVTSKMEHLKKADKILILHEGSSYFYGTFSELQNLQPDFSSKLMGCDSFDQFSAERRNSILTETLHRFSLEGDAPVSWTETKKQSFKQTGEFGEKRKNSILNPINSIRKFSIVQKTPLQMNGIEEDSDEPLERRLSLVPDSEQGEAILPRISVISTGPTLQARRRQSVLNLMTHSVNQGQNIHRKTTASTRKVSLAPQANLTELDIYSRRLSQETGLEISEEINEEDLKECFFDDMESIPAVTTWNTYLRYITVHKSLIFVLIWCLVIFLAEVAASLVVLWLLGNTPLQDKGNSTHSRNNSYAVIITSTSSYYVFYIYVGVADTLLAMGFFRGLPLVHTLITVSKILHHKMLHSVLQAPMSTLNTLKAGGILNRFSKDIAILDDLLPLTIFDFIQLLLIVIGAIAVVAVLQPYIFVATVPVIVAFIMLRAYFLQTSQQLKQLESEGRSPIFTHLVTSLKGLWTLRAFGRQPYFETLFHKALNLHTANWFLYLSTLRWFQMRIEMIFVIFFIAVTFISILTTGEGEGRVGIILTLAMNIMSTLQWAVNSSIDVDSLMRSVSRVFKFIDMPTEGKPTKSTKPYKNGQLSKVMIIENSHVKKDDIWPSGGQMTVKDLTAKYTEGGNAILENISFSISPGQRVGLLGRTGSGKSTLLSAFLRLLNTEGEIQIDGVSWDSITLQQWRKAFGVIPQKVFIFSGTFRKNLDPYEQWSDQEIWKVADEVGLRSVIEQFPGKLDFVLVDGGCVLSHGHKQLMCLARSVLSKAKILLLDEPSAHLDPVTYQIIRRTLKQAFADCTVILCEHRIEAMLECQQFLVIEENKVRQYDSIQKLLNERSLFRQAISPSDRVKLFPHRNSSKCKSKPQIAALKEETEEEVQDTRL

With `CN1CC[C@@H](Oc2cc(C(=O)O)nc3c2c(C2CCC2)nn3-c2ccccc2)C1` [compound 650, 3-cyclobutyl-4-{[(3R)-1-methylpyrrolidin-3-yl]oxy}-1-phenyl-1H-pyrazolo[3,4-b]pyridine-6-carboxylic acid], at ΔF508-CFTR [1] (setting [3]), the “% Activation” value worked out at 45.88% and the EC50 was 3.33 µM. On ΔF508-CFTR [2], the “% Activation” value amounted to 193.6% and the EC50 came to 3.33 µM.
As to `O=C1CN(c2cc(C(=O)O)nc3c2c(C2CCC2)nn3-c2ccccc2)CCN1` [compound 504, 3-cyclobutyl-4-(3-oxopiperazin-1-yl)-1-phenyl-1H-pyrazolo[3,4-b]pyridine-6-carboxylic acid], the “% Activation” value on ΔF508-CFTR [1] (setting [3]) came to 19.62%; on ΔF508-CFTR [2], 138.9%. The EC50 at ΔF508-CFTR [1] (setting [3]) and at ΔF508-CFTR [2] was over 10 µM in each case.
On to `Cc1nn(-c2ccccc2)c2nc(C(=O)O)cc(N3CCC4(CC3)CN(C)C(=O)CO4)c12` [compound 288, 3-methyl-4-(4-methyl-3-oxo-1-oxa-4,9-diazaspiro[5.5]undecan-9-yl)-1-phenyl-1H-pyrazolo[3,4-b]pyridine-6-carboxylic acid], for which the “% Activation” value at ΔF508-CFTR [1] (setting [4]) is given as 20.49%; on ΔF508-CFTR [2], 128%. For the same compound, the EC50 on ΔF508-CFTR [1] (setting [5]) and on ΔF508-CFTR [2] was 7.5 µM throughout.
With `Cc1nn(-c2ccccc2)c2nc(C(=O)O)cc(-c3ccc(N4CCC5(CC4)COC5)cc3)c12` [compound 154, 3-methyl-4-[4-(2-oxa-7-azaspiro[3.5]nonan-7-yl)phenyl]-1-phenyl-1H-pyrazolo[3,4-b]pyridine-6-carboxylic acid], the results for the “% Activation” value on ΔF508-CFTR [1] (setting [4]) and on ΔF508-CFTR [2] were 153.9% and 353.7%, respectively. The EC50 on ΔF508-CFTR [1] (setting [5]) was 0.918 µM; at ΔF508-CFTR [2], 0.748 µM.
Regarding `Cc1nn(-c2ccccc2)c2nc(C(=O)O)cc(OCC3CCC(F)(F)C3)c12` (centres unmarked) [compound 382, 4-[(3,3-difluorocyclopentyl)methoxy]-3-methyl-1-phenyl-1H-pyrazolo[3,4-b]pyridine-6-carboxylic acid], the “% Activation” value at ΔF508-CFTR [1] (setting [4]) is reported as 80.645%; on ΔF508-CFTR [2], 268.1%. In addition, the values for the EC50 at ΔF508-CFTR [1] (setting [5]) and on ΔF508-CFTR [2] were 1.67 µM and 1.41 µM, respectively.
As to `COC1CCN(C2CCN(c3cc(C(=O)O)nc4c3c(C3CCC3)nn4-c3ccc(F)cc3)CC2)C1` (centres unmarked) [compound 848, 3-cyclobutyl-1-(4-fluorophenyl)-4-[4-(3-methoxypyrrolidin-1-yl)piperidin-1-yl]-1H-pyrazolo[3,4-b]pyridine-6-carboxylic acid], the “% Activation” value stood at 249% at ΔF508-CFTR [1] (setting [3]) and 405.2% at ΔF508-CFTR [2]. For the same compound, the EC50 on ΔF508-CFTR [1] (setting [3]) turned out to be 1.2 µM; at ΔF508-CFTR [2], 0.427 µM.
As to `O=C(O)c1cc(N2CCCCC2)c2c(C3CCC3)nn(-c3ccccc3)c2n1` [compound 408, 3-cyclobutyl-1-phenyl-4-(piperidin-1-yl)-1H-pyrazolo[3,4-b]pyridine-6-carboxylic acid], on ΔF508-CFTR [1] (setting [3]), the “% Activation” value is reported as 141.15% and the EC50 turned out to be 0.932 µM. Besides, on ΔF508-CFTR [2], the “% Activation” value is listed as 346.95% and the EC50 came out at 0.617 µM.
As for `O=C(O)c1cc(N2CCC(CN3CC[C@H](F)C3)CC2)c2c(C3CCC3)nn(-c3ccccc3)c2n1` [compound 833, 3-cyclobutyl-4-(4-{[(3S)-3-fluoropyrrolidin-1-yl]methyl}piperidin-1-yl)-1-phenyl-1H-pyrazolo[3,4-b]pyridine-6-carboxylic acid], the “% Activation” value at ΔF508-CFTR [1] (setting [3]) worked out at 231.9%; on ΔF508-CFTR [2] it was 443.15%. The EC50 at ΔF508-CFTR [1] (setting [3]) turned out to be 0.187 µM; at ΔF508-CFTR [2] it was 0.142 µM.
In the case of `CC(C)c1nn(C2CCCCC2)c2nc(C(=O)O)cc(-c3ccc(N4CCOCC4)nc3)c12` [compound 81, 1-cyclohexyl-4-[6-(morpholin-4-yl)pyridin-3-yl]-3-(propan-2-yl)-1H-pyrazolo[3,4-b]pyridine-6-carboxylic acid], the “% Activation” value on ΔF508-CFTR [1] (setting [4]) was found to be 193.6%; at ΔF508-CFTR [2], 398.25%. Besides, the EC50 on ΔF508-CFTR [1] (setting [5]) stood at 0.744 µM; at ΔF508-CFTR [2] it was 0.57 µM.
With `CC1CN(C2CCN(c3cc(C(=O)O)nc4c3c(C3CCC3)nn4-c3ccccc3)CC2)CC(C)O1` (centres unmarked) [compound 688, 3-cyclobutyl-4-[4-(2,6-dimethylmorpholin-4-yl)piperidin-1-yl]-1-phenyl-1H-pyrazolo[3,4-b]pyridine-6-carboxylic acid], on ΔF508-CFTR [1] (setting [3]), the “% Activation” value stood at 322.5% and the EC50 is 0.247 µM. Further, at ΔF508-CFTR [2], the “% Activation” value was 532.6% and the EC50 worked out at 0.247 µM.
For `COc1ccc(-n2nc(C)c3c(-c4ccc(N5CCOCC5)cc4)cc(C(=O)O)nc32)cn1` [compound 61, 1-(6-methoxypyridin-3-yl)-3-methyl-4-[4-(morpholin-4-yl)phenyl]-1H-pyrazolo[3,4-b]pyridine-6-carboxylic acid], the “% Activation” value at ΔF508-CFTR [1] (setting [4]) was determined as 96.05%; on ΔF508-CFTR [2] it was 253.6%. The EC50 at ΔF508-CFTR [1] (setting [5]) amounted to 3.34 µM; on ΔF508-CFTR [2] it was 2.35 µM.
On the same counts, the results for `Cc1cccc(-n2nc(C(C)C)c3c(N4CCC5(CCCCC5)CC4)cc(C(=O)O)nc32)c1` [compound 360, 4-(3-azaspiro[5.5]undecan-3-yl)-1-(3-methylphenyl)-3-(propan-2-yl)-1H-pyrazolo[3,4-b]pyridine-6-carboxylic acid] are 96.335%, 293%, 1.17 µM and 1.03 µM.
For `O=C(O)c1cc(N2CCN(CC3OCCO3)CC2)c2c(C3CCC3)nn(-c3ccccc3)c2n1` [compound 684, 3-cyclobutyl-4-{4-[(1,3-dioxolan-2-yl)methyl]piperazin-1-yl}-1-phenyl-1H-pyrazolo[3,4-b]pyridine-6-carboxylic acid], on ΔF508-CFTR [1] (setting [3]), the “% Activation” value is 230.2% and the EC50 was determined as 0.38 µM. Also, on ΔF508-CFTR [2], the “% Activation” value was 384.65% and the EC50 was found to be 0.236 µM.
In the case of `CC(C)(CO)c1nn(-c2ccccc2)c2nc(C(=O)O)cc(-c3ccc(N4CCOCC4)nc3)c12` [compound 92, 3-(1-hydroxy-2-methylpropan-2-yl)-4-[6-(morpholin-4-yl)pyridin-3-yl]-1-phenyl-1H-pyrazolo[3,4-b]pyridine-6-carboxylic acid], the “% Activation” value at ΔF508-CFTR [1] (setting [4]) was determined as 2.873%; at ΔF508-CFTR [2], 99.81%. The EC50 at ΔF508-CFTR [1] (setting [5]) and on ΔF508-CFTR [2] was over 10 µM throughout.
As to `O=C(O)c1cc(CN2CCOCC2)c2c(C3CCC3)nn(-c3ccc(F)cc3)c2n1` [compound 857, 3-cyclobutyl-1-(4-fluorophenyl)-4-[(morpholin-4-yl)methyl]-1H-pyrazolo[3,4-b]pyridine-6-carboxylic acid], on ΔF508-CFTR [1] (setting [3]), the “% Activation” value came to 60.01% and the EC50 came out at 3.33 µM. Also, at ΔF508-CFTR [2], the “% Activation” value was 232.2% and the EC50 amounted to 2.44 µM.
Regarding `CC(C)c1nn(C2CCCCC2)c2nc(C(=O)O)cc(-c3cnc(N(C)C4CCN(C(=O)OC(C)(C)C)CC4)nc3)c12` [compound 374, 4-(2-{[1-(tert-butoxycarbonyl)piperidin-4-yl](methyl)amino}pyrimidin-5-yl)-1-cyclohexyl-3-(propan-2-yl)-1H-pyrazolo[3,4-b]pyridine-6-carboxylic acid], the “% Activation” value turned out to be 114.2% at ΔF508-CFTR [1] (setting [4]) and 297.35% at ΔF508-CFTR [2]. Moreover, the values for the EC50 on ΔF508-CFTR [1] (setting [5]) and on ΔF508-CFTR [2] were 0.595 µM and 0.464 µM, respectively.
Turning to `CC(C)c1nn(-c2ccc(F)cc2)c2nc(C(=O)O)cc(N3CCCN(C)CC3)c12` [compound 769, 1-(4-fluorophenyl)-4-(4-methyl-1,4-diazepan-1-yl)-3-(propan-2-yl)-1H-pyrazolo[3,4-b]pyridine-6-carboxylic acid], on ΔF508-CFTR [1] (setting [3]), the “% Activation” value is on record as 19.25% and the EC50 is 5 µM. For the same compound, at ΔF508-CFTR [2], the “% Activation” value is given as 157.2% and the EC50 was determined as 1.58 µM.
Regarding `Cc1cccc(-n2nc(C(C)C)c3c(N4CC5(CCCCO5)C4)cc(C(=O)O)nc32)c1` [compound 274, 1-(3-methylphenyl)-4-(5-oxa-2-azaspiro[3.5]nonan-2-yl)-3-(propan-2-yl)-1H-pyrazolo[3,4-b]pyridine-6-carboxylic acid], the “% Activation” value was 114.64% at ΔF508-CFTR [1] (setting [4]) and 301.45% at ΔF508-CFTR [2]. The EC50 on ΔF508-CFTR [1] (setting [5]) amounted to 1.08 µM; at ΔF508-CFTR [2], 0.902 µM.
On to `CC(C)N1CCC(Oc2cc(C(=O)O)nc3c2c(C2CCC2)nn3-c2ccccc2)CC1` [compound 647, 3-cyclobutyl-1-phenyl-4-{[1-(propan-2-yl)piperidin-4-yl]oxy}-1H-pyrazolo[3,4-b]pyridine-6-carboxylic acid], for which, at ΔF508-CFTR [1] (setting [3]), the “% Activation” value worked out at 119.9% and the EC50 came to 2.18 µM. Further, on ΔF508-CFTR [2], the “% Activation” value turned out to be 301.3% and the half-maximal effective concentration (EC50) was 2.01 µM.
In the case of `Cc1nn(-c2cccc(N3CCOCC3)c2)c2nc(C(=O)O)cc(-c3ccc(N4CCOCC4)cc3)c12` [compound 32, 3-methyl-1-[3-(morpholin-4-yl)phenyl]-4-[4-(morpholin-4-yl)phenyl]-1H-pyrazolo[3,4-b]pyridine-6-carboxylic acid], the “% Activation” value at ΔF508-CFTR [1] (setting [4]) was 176.7%; at ΔF508-CFTR [2], 399.6%. Further, the figures for the EC50 on ΔF508-CFTR [1] (setting [5]) and on ΔF508-CFTR [2] were 0.638 µM and 1.39 µM, respectively.

For orientation: EC50 means the concentration at which the effect is half-maximal.

The record behind these values is patent publication US9796711B2, “Substituted pyrazolo[3,4-b]pyridin-6-carboxylic acids and method of use” (AbbVie S.àr.l., priority 2015, dated 2017).
